Results as given in patent publication US12533370B2, “Compositions and methods of potentiating antimicrobials” (priority 2016, dated 2026).
Converted amounts (≈) assume the structure as drawn.

Legend:
[1] = tested on: MRSA/VISA clinical strain No 111; test: MIC and Fic index for gentamicin with and without CBD, Example 9; assay type: cell-based, Staphylococcus aureus; conditions: for MIC value: agent alone
Procedure: (§1) The term “minimal inhibitory concentration” or “MIC” as used herein relates to the minimal concentration of an agent, or a combination of agents, in which bacteria are substantially killed or at least not substantially grow. The cutoff value to determine the MIC in the experimental section was set to an optical density (OD) value of ≤0.1 after an overnight incubation of the bacteria together with the tested antibacterial agent(s).
(§2) Fractional Inhibitory Concentration values (FicA and FicB) and Fic index were calculated for each combination of compounds and clinical isolate using the following standard equations for this analysis: Fic index=FicA+FicB FicA=MIC of compound A (CBG) in combination/MIC of compound A alone. FicB=MIC of compound B (gentamicin) in combination/MIC of compound B alone.
(§3) Synergy is defined as a Fic index value of ≤0.5. Indifference or no interaction will be defined as a FIC index value of >0.5 and <4. Antagonism will be defined as a FIC index value of >4. When the FIC index value is within the range of 0.5-1, the combination is considered to be non-synergistic or additive.
(§4) The goal of the current experiment was to determine the minimal inhibitory concentration (MIC) for gentamicin with and without CBD on methicillin-resistant Staphylococcus aureus (MRSA) and vancomycin-resistant Staphylococcus aureus (MRSA) (VISA) clinical strain No 111 from Souraski Medical Center, Tel Aviv, Israel. The cutoff value to determine the MIC was set to an optical density (OD) value of ≤0.1.
(§5) Fractional Inhibitory Concentration values (FicA and FicB) and Fic index were calculated for each combination of compounds and clinical isolate using the same calculation as in example 7.

[2] = tested on: MRSA/VISA clinical strain No 111; test: MIC and Fic index for gentamicin with and without CBG, Example 7; assay type: cell-based, Staphylococcus aureus; conditions: for MIC value: agent alone, OD cutoff ≤0.1
Procedure: as §1
as §4, with “CBG” for “CBD”
as §2, §3

[3] = tested on: methicillin-resistant Staphylococcus aureus (MRSA) violent clinical strain 760330509; test: MIC and Fic index for gentamicin with and without CBG, Example 8; assay type: cell-based; conditions: for MIC value: agent alone
Procedure: as §1, §2, §3
as §4, with “CBG” for “CBD”, “violent” for “and vancomycin-resistant Staphylococcus aureus (MRSA) (VISA)”, “760330509” for “No 111”
as §5

[4] = tested on: S. aureus ATCC strain 25923 (gentamicin-sensitive); test: Minimal inhibitory concentration (MIC) for gentamicin with and without THC, Example 2; assay type: cell-based, Staphylococcus aureus; conditions: OD cutoff ≤0.1
Procedure: (§6) In certain embodiments, the method of testing the anti-bacterial efficacy of a composition (or any test solution), comprises the following steps: (a) inoculation of bacteria (e.g. from a −80° C. stock) into 3 mL Muller Hinton (MH) medium; (b) incubation of the inoculated medium at 37° C. under agitation of 250 rpm for 18-20 hours, thus obtaining a starter culture; (c) diluting the starter culture using saline to obtain working cultures of 5*10^5 or 10^6 bacteria/mL; (d) combining the […] and the tested composition in a test container, e.g. a 96-well plate; (e) incubating the test container at 37° C. under shaking (100 rpm) for 18-20 hours; and (f) determining the viability of bacteria in the test container, thus determining the anti-bacterial efficacy of the composition, e.g. via determining the optical density (OD) of the bacterial culture. Routine calibrations and/or modifications of this method are well within the capabilities of any person of average skill in the art.
(§7) The term “minimal inhibitory concentration” or “MIC” as used herein relates to the minimal concentration of an agent, or a combination of agents, in which bacteria are substantially killed or at least not substantially grow. […]

Streptococcus pneumoniae = test: MIC for carbenicillin with and without THC, Example 6; assay type: cell-based; conditions: agent alone, OD cutoff ≤0.1
Procedure: as §6, §7

[5] = tested on: S. aureus ATCC strain 25923 (gentamicin-sensitive); test: Minimal bactericidal concentration (MBC), Example 1; assay type: cell-based, Staphylococcus aureus
Procedure: The goal of the current experiment was to determine the minimal bactericidal concentrations (MBC) for THC with and without PEA on S. aureus ATCC strain 25923 (gentamicin-sensitive).
• 1. Incubation of the S. aureus (from a −80° C. stock) in 3 ml Muller Hinton (MH, Difco) medium at 37° C. under agitation of 250 rpm for 18-20 hours (this culture served as a starter for the experiment); • 2. Dilution of the starter culture using saline to obtain working cultures of 5*10^5 and 10^6 C.F.U/mL bacteria, respectively. • 3. Diluting the THC (0.125 mg/mL in saline) with or without PEA or gentamicin in a 96-well plate. • 4. Incubation of the plates at 37° C. under shaking (100 rpm) for 18-20 hours. • 5. In the following day, the bacteria in the wells suspended in saline were evaluated for their C.F.U/mL to determine the MBC.

[6] = tested on: established S. aureus ATCC strain 25923 (gentamicin-sensitive) biofilm; test: MIC for gentamicin with and without THC on established biofilm, Example 10; assay type: cell-based, Staphylococcus aureus; conditions: agent alone; OD cutoff ≤0.1
Procedure: as §1
The goal of the current experiment was to determine the minimal inhibitory concentration (MIC) for gentamicin with and without THC on an established S. aureus ATCC strain 25923 (gentamicin-sensitive) biofilm. The cutoff value to determine the MIC was set to an optical density (OD) value of ≤0.1.

[7] = tested on: S. aureus ATCC strain 25923 (gentamicin-sensitive); test: MIC for gentamicin with and without THC, Example 3; assay type: cell-based, Staphylococcus aureus; conditions: OD cutoff ≤0.1
Procedure: as §6, §7

[8] = tested on: methicillin-resistant Staphylococcus aureus (MRSA); test: MIC for gentamicin with and without THC on MRSA, Example 4; assay type: cell-based
Procedure: as §6, §7

[9] = tested on: methicillin-resistant Staphylococcus aureus (MRSA); test: MIC for ampicillin with and without THC on MRSA, Example 5; assay type: cell-based; conditions: read-out: MIC value
Procedure: as §6, §7

[10] = Staphylococcus aureus, read-out: MIC value
[11] = Staphylococcus aureus, ATCC25923, agent alone

Q: For `C=C(C)[C@@H]1CCC(C)=C[C@H]1c1c(O)cc(CCCCC)cc1O` [CBD, cannabidiol], which “FicA value (MIC of CBD in combination/MIC alone)” value ([1]; 32 μg/mL Gen.+1 μg/mL CBD) is on record?
A: Its value is 0.125.

Q: And the MIC ([1]; Staphylococcus aureus, read-out: MIC value, agent alone, MRSA/VISA strain No 111, OD cutoff ≤0.1)?
A: The MIC was roughly 8 µg/mL.

Q: With `CCCCCc1cc(O)c(C/C=C(\C)CCC=C(C)C)c(O)c1` [CBG, cannabigerol] as the compound, how does the “FicA value (MIC of CBG in combination/MIC alone)” value ([2]; 64 μg/mL Gen.+1 μg/mL CBG) read?
A: The value was 0.125.

Q: And the “MIC value for CBG alone” value ([2]; MRSA/VISA strain No 111)?
A: The value was “about 8 n g/mL”.

Q: What about the MIC [2, 10] of the same compound?
A: Its MIC is 8 µg/mL.

Q: What about the “FicA value (MIC of CBG in combination/MIC alone)” value ([3]; 32 μg/mL Gen.+1 μg/mL CBG) of the same compound?
A: The value was 0.125.

Q: And the MIC ([3]; Staphylococcus aureus, MRSA, read-out: MIC value, agent alone, MRSA strain 760330509, OD cutoff ≤0.1)?
A: Its MIC is roughly 8 µg/mL.

Q: What does the source list for `CCCCCc1cc(O)c2c(c1)OC(C)(C)[C@@H]1CCC(C)=C[C@@H]21` [THC, tetrahydrocannabinol]?
A: MIC [4, 11]: ~1 µg/mL; MIC (Streptococcus pneumoniae): ~2 µg/mL; MBC ([5]; Staphylococcus aureus, ATCC25923, agent alone, S. aureus ATCC 25923): ~7.8 µg/mL (≈ 24.8 µM); fold decrease of MBC compared to gentamicin alone ([5]; THC alone vs gentamicin alone): 32 fold; MIC value on established biofilm [6]: about 0.004 mg/mL; MIC [7, 11]: ~2 µg/mL; MIC [8, 10]: ~2 µg/mL; MIC [9]: ~2 µg/mL

Q: `CC1(C)S[C@@H]2[C@H](NC(=O)[C@H](N)c3ccccc3)C(=O)N2[C@H]1C(=O)O` [ampicillin] was tested. Which MIC [9] did it give?
A: Its MIC is roughly 500 µg/mL.

Q: With `CC1(C)S[C@@H]2[C@H](NC(=O)C(C(=O)O)c3ccccc3)C(=O)N2[C@H]1C(=O)O` (stereo partly shown) [carbenicillin] as the compound, how does the MIC (Streptococcus pneumoniae) read?
A: The MIC was roughly 0.2 µg/mL.

Q: gentamicin was tested. Which MIC value ([4]; agent alone) did it give?
A: The MIC value was “about 0.001 mg/mL”.

Q: What about the MBC value ([5]; agent alone, S. aureus ATCC 25923) of the same compound?
A: The MBC value was 250 µg/mL.

Q: What about the “MIC value on established biofilm” value [6] of the same compound?
A: Its value is “over 0.002 mg/mL”.

Q: And the MIC value ([7]; agent alone)?
A: The MIC value was “about 0.002 mg/mL”.

Q: What about the “FicB value (MIC of gentamicin in combination/MIC alone)” value ([1]; 32 μg/mL Gen.+1 μg/mL CBD) of the same compound?
A: The value was 0.125.

Q: What about the MIC value ([1]; MRSA/VISA strain No 111, OD cutoff ≤0.1) of the same compound?
A: Its MIC value is “about 256 μg/mL”.

Q: What about the MIC value ([1]; MRSA/VISA strain No 111, OD cutoff ≤0.1, listed as Gen.) of the same compound?
A: The MIC value was 256 µg/mL.

Q: And the “FicB value (MIC of gentamicin in combination/MIC alone)” value ([2]; 64 μg/mL Gen.+1 μg/mL CBG)?
A: The value was 0.25.

Q: And the MIC value ([2]; MRSA/VISA strain No 111)?
A: Its MIC value is “about 256 μg/mL”.

Q: And the MIC value ([2]; MRSA/VISA strain No 111, listed as Gen.)?
A: Its MIC value is 256 µg/mL.

Q: What about the MIC value ([8]; agent alone, OD cutoff ≤0.1) of the same compound?
A: The MIC value was “about 0.125 mg/mL”.

Q: What about the “FicB value (MIC of gentamicin in combination/MIC alone)” value ([3]; 32 μg/mL Gen.+1 μg/mL CBG) of the same compound?
A: The value was 0.25.

Q: And the MIC value ([3]; MRSA strain 760330509, OD cutoff ≤0.1)?
A: The MIC value was “about 128 μg/mL”.

Q: And the MIC value ([3]; MRSA strain 760330509, OD cutoff ≤0.1, listed as Gen.)?
A: The MIC value was 128 µg/mL.
